Source: PubChem BioAssay (NCI)
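Grown in 96-well plates, cells were treated for 48 hours with each compound at five concentrations. Insufficient inhibition: endpoint recorded as highest concentration tested. TGI: concentration producing complete growth inhibition.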

Legend:
Experiment in all cases: NCI-60 cell line screen, 48 h
SNB-78 CNS = test system: SNB-78 CNS
U251 CNS = test system: U251 CNS
CCRF-CEM leukemia = test system: CCRF-CEM leukemia
SK-MEL-2 melanoma = test system: SK-MEL-2 melanoma
NCI-H226 lung = test system: NCI-H226 lung
SNB-19 CNS = test system: SNB-19 CNS
OVCAR-8 ovarian = test system: OVCAR-8 ovarian
DLD-1 colon = test system: DLD-1 colon
UACC-257 melanoma = test system: UACC-257 melanoma
M19-MEL melanoma = test system: M19-MEL melanoma
EKVX NSCLC = test system: EKVX NSCLC
K-562 leukemia = test system: K-562 leukemia
KM20L2 colon = test system: KM20L2 colon
SF-539 CNS = test system: SF-539 CNS
SK-MEL-5 melanoma = test system: SK-MEL-5 melanoma
786-0 renal = test system: 786-0 renal
RPMI-8226 leukemia = test system: RPMI-8226 leukemia
HCC-2998 colon = test system: HCC-2998 colon
HCT-116 colon = test system: HCT-116 colon
SF-295 CNS = test system: SF-295 CNS
NCI-H460 lung = test system: NCI-H460 lung
XF 498 CNS = test system: XF 498 CNS
CAKI-1 renal = test system: CAKI-1 renal
UACC-62 melanoma = test system: UACC-62 melanoma
LXFL 529 NSCLC = test system: LXFL 529 NSCLC
M14 melanoma = test system: M14 melanoma
MALME-3M melanoma = test system: MALME-3M melanoma
HOP-92 NSCLC = test system: HOP-92 NSCLC
HCT-15 colon = test system: HCT-15 colon
TK-10 renal = test system: TK-10 renal
MOLT-4 leukemia = test system: MOLT-4 leukemia
SK-MEL-28 melanoma = test system: SK-MEL-28 melanoma
UO-31 renal = test system: UO-31 renal
SF-268 CNS = test system: SF-268 CNS
OVCAR-5 ovarian = test system: OVCAR-5 ovarian
SNB-75 CNS = test system: SNB-75 CNS
A498 renal = test system: A498 renal
NCI-H522 lung = test system: NCI-H522 lung
OVCAR-3 ovarian = test system: OVCAR-3 ovarian
DMS 273 small cell lung = test system: DMS 273 small cell lung
HL-60(TB) leukemia = test system: HL-60(TB) leukemia
OVCAR-4 ovarian = test system: OVCAR-4 ovarian
KM12 colon = test system: KM12 colon
LOX IMVI melanoma = test system: LOX IMVI melanoma
SR leukemia = test system: SR leukemia
HOP-62 NSCLC = test system: HOP-62 NSCLC
SN12C renal = test system: SN12C renal
HOP-18 NSCLC = test system: HOP-18 NSCLC
HT29 colon = test system: HT29 colon
SK-OV-3 ovarian = test system: SK-OV-3 ovarian
ACHN renal = test system: ACHN renal
A549 NSCLC = test system: A549 NSCLC
COLO 205 colon = test system: COLO 205 colon
IGROV1 ovarian = test system: IGROV1 ovarian
NCI-H23 lung = test system: NCI-H23 lung
RXF 393 renal = test system: RXF 393 renal
SW-620 colon = test system: SW-620 colon
DMS 114 small cell lung = test system: DMS 114 small cell lung

Structure (SMILES): CCOC(=O)C1=C(OC(OCC)C(C)[Se]c2ccccc2)CCC1 (stereo not given)
- TGI (SNB-78 CNS): > 100 µM
- TGI (U251 CNS): 20.1 µM
- TGI (CCRF-CEM leukemia): 49.7 µM
- TGI (SK-MEL-2 melanoma): > 100 µM
- TGI (NCI-H226 lung): 50.4 µM
- TGI (SNB-19 CNS): > 100 µM
- TGI (OVCAR-8 ovarian): 30.1 µM
- TGI (DLD-1 colon): 40.5 µM
- TGI (UACC-257 melanoma): > 100 µM
- TGI (M19-MEL melanoma): 38.9 µM
- TGI (EKVX NSCLC): 59.1 µM
- TGI (K-562 leukemia): > 100 µM
- TGI (KM20L2 colon): 74.2 µM
- TGI (SF-539 CNS): 39.9 µM
- TGI (SK-MEL-5 melanoma): 39.9 µM
- TGI (786-0 renal): 25.1 µM
- TGI (RPMI-8226 leukemia): 36.5 µM
- TGI (HCC-2998 colon): > 100 µM
- TGI (HCT-116 colon): 38.8 µM
- TGI (SF-295 CNS): 79.3 µM
- TGI (NCI-H460 lung): 60 µM
- TGI (XF 498 CNS): 34.4 µM
- TGI (CAKI-1 renal): > 100 µM
- TGI (UACC-62 melanoma): 43.6 µM
- TGI (LXFL 529 NSCLC): 37.4 µM
- TGI (M14 melanoma): 63.2 µM
- TGI (MALME-3M melanoma): 89.5 µM
- TGI (HOP-92 NSCLC): 48.3 µM
- TGI (HCT-15 colon): 33.6 µM
- TGI (TK-10 renal): > 100 µM
- TGI (MOLT-4 leukemia): 58.5 µM
- TGI (SK-MEL-28 melanoma): 62.7 µM
- TGI (UO-31 renal): 47.1 µM
- TGI (SF-268 CNS): 32.3 µM
- TGI (OVCAR-5 ovarian): > 100 µM
- TGI (SNB-75 CNS): 73.6 µM
- TGI (A498 renal): > 100 µM
- TGI (NCI-H522 lung): 26.9 µM
- TGI (OVCAR-3 ovarian): 32 µM
- TGI (DMS 273 small cell lung): 22.4 µM
- TGI (HL-60(TB) leukemia): 21.2 µM
- TGI (OVCAR-4 ovarian): 37.5 µM
- TGI (KM12 colon): > 100 µM
- TGI (LOX IMVI melanoma): 20.4 µM
- TGI (SR leukemia): 28 µM
- TGI (HOP-62 NSCLC): > 100 µM
- TGI (SN12C renal): 36.5 µM
- TGI (HOP-18 NSCLC): 51.7 µM
- TGI (HT29 colon): 77.6 µM
- TGI (SK-OV-3 ovarian): > 100 µM
- TGI (ACHN renal): 68.4 µM
- TGI (A549 NSCLC): > 100 µM
- TGI (COLO 205 colon): 82.2 µM
- TGI (IGROV1 ovarian): 81 µM
- TGI (NCI-H23 lung): 27.9 µM
- TGI (RXF 393 renal): 30.2 µM

Structure (SMILES): CCc1cccc(C)c1NC(=O)CC(=O)NNC(N)=S
- TGI (SNB-78 CNS): > 100 µM
- TGI (U251 CNS): > 100 µM
- TGI (CCRF-CEM leukemia): > 100 µM
- TGI (NCI-H226 lung): > 100 µM
- TGI (SNB-19 CNS): > 100 µM
- TGI (OVCAR-8 ovarian): > 100 µM
- TGI (DLD-1 colon): > 100 µM
- TGI (UACC-257 melanoma): > 100 µM
- TGI (EKVX NSCLC): > 100 µM
- TGI (K-562 leukemia): > 100 µM
- TGI (KM20L2 colon): > 100 µM
- TGI (SK-MEL-5 melanoma): > 100 µM
- TGI (786-0 renal): > 100 µM
- TGI (RPMI-8226 leukemia): > 100 µM
- TGI (HCC-2998 colon): > 100 µM
- TGI (SF-295 CNS): > 100 µM
- TGI (NCI-H460 lung): > 100 µM
- TGI (XF 498 CNS): > 100 µM
- TGI (CAKI-1 renal): > 100 µM
- TGI (LXFL 529 NSCLC): > 100 µM
- TGI (M14 melanoma): > 100 µM
- TGI (MALME-3M melanoma): > 100 µM
- TGI (HOP-92 NSCLC): > 100 µM
- TGI (HCT-15 colon): > 100 µM
- TGI (TK-10 renal): > 100 µM
- TGI (MOLT-4 leukemia): > 100 µM
- TGI (SW-620 colon): > 100 µM
- TGI (SK-MEL-28 melanoma): > 100 µM
- TGI (UO-31 renal): > 100 µM
- TGI (SF-268 CNS): > 100 µM
- TGI (OVCAR-5 ovarian): > 100 µM
- TGI (SNB-75 CNS): > 100 µM
- TGI (NCI-H522 lung): > 100 µM
- TGI (OVCAR-3 ovarian): > 100 µM
- TGI (DMS 273 small cell lung): > 100 µM
- TGI (HL-60(TB) leukemia): > 100 µM
- TGI (OVCAR-4 ovarian): > 100 µM
- TGI (KM12 colon): > 100 µM
- TGI (DMS 114 small cell lung): > 100 µM
- TGI (LOX IMVI melanoma): > 100 µM
- TGI (HOP-62 NSCLC): > 100 µM
- TGI (SN12C renal): > 100 µM
- TGI (HOP-18 NSCLC): > 100 µM
- TGI (HT29 colon): > 100 µM
- TGI (SK-OV-3 ovarian): > 100 µM
- TGI (ACHN renal): > 100 µM
- TGI (A549 NSCLC): > 100 µM
- TGI (COLO 205 colon): > 100 µM
- TGI (NCI-H23 lung): > 100 µM
- TGI (RXF 393 renal): > 100 µM

Structure (SMILES): CCCCCCCCCCn1cccc1/C=C/c1ccc(/C=C/c2cccn2CCCCCCCCCC)cc1
- TGI (SNB-78 CNS): > 100 µM
- TGI (U251 CNS): > 100 µM
- TGI (CCRF-CEM leukemia): > 100 µM
- TGI (NCI-H226 lung): > 100 µM
- TGI (SNB-19 CNS): > 100 µM
- TGI (OVCAR-8 ovarian): > 100 µM
- TGI (DLD-1 colon): > 100 µM
- TGI (UACC-257 melanoma): > 100 µM
- TGI (M19-MEL melanoma): > 100 µM
- TGI (EKVX NSCLC): > 100 µM
- TGI (K-562 leukemia): > 100 µM
- TGI (KM20L2 colon): > 100 µM
- TGI (SF-539 CNS): > 100 µM
- TGI (SK-MEL-5 melanoma): > 100 µM
- TGI (786-0 renal): > 100 µM
- TGI (RPMI-8226 leukemia): > 100 µM
- TGI (HCC-2998 colon): > 100 µM
- TGI (HCT-116 colon): > 100 µM
- TGI (SF-295 CNS): > 100 µM
- TGI (NCI-H460 lung): > 100 µM
- TGI (XF 498 CNS): > 100 µM
- TGI (CAKI-1 renal): > 100 µM
- TGI (UACC-62 melanoma): > 100 µM
- TGI (LXFL 529 NSCLC): > 100 µM
- TGI (M14 melanoma): > 100 µM
- TGI (MALME-3M melanoma): > 100 µM
- TGI (HOP-92 NSCLC): > 100 µM
- TGI (TK-10 renal): > 100 µM
- TGI (SW-620 colon): > 100 µM
- TGI (SK-MEL-28 melanoma): > 100 µM
- TGI (UO-31 renal): > 100 µM
- TGI (SF-268 CNS): > 100 µM
- TGI (OVCAR-5 ovarian): > 100 µM
- TGI (SNB-75 CNS): > 100 µM
- TGI (A498 renal): > 100 µM
- TGI (NCI-H522 lung): > 100 µM
- TGI (OVCAR-3 ovarian): > 100 µM
- TGI (DMS 273 small cell lung): > 100 µM
- TGI (HL-60(TB) leukemia): > 100 µM
- TGI (OVCAR-4 ovarian): > 100 µM
- TGI (KM12 colon): > 100 µM
- TGI (DMS 114 small cell lung): > 100 µM
- TGI (LOX IMVI melanoma): > 100 µM
- TGI (HOP-62 NSCLC): > 100 µM
- TGI (SN12C renal): > 100 µM
- TGI (HOP-18 NSCLC): > 100 µM
- TGI (HT29 colon): > 100 µM
- TGI (SK-OV-3 ovarian): > 100 µM
- TGI (ACHN renal): > 100 µM
- TGI (A549 NSCLC): > 100 µM
- TGI (COLO 205 colon): > 100 µM
- TGI (IGROV1 ovarian): > 100 µM
- TGI (NCI-H23 lung): > 100 µM
- TGI (RXF 393 renal): > 100 µM
